From publication PMC6879241 (Antimicrobial Agents and Chemotherapy, 2019)
In brackets after ≈: the same amount, converted by molar mass. Several values for one entry are separate records, joined by “and”; a condition that tells them apart may be missing. Identical values can stand only once. Like-named read-outs stand apart in the source and are kept apart here.

Tests used:
B. mallei = assay: microbe, parasite or virus in culture; type: cell-based, Burkholderia mallei; details: for MIC50 / MIC90: Burkholderia mallei
B. pseudomallei = assay: microbe, parasite or virus in culture; type: cell-based, Burkholderia pseudomallei; details: for MIC50 / MIC90: Burkholderia pseudomallei
E. coli ATCC 25922 = assay: microbe, parasite or virus in culture; type: cell-based; details: Escherichia coli, ATCC25922
P. aeruginosa ATCC 27853 = assay: microbe, parasite or virus in culture; type: cell-based; details: Pseudomonas aeruginosa, ATCC27853
Y. pestis = assay: microbe, parasite or virus in culture; type: cell-based, Yersinia pestis
F. tularensis = assay: microbe, parasite or virus in culture; type: cell-based, Francisella tularensis
B. anthracis = assay: microbe, parasite or virus in culture; type: cell-based, Bacillus anthracis
[1] = test system: B. pseudomallei strain 1026b; set-up: species or system BALB/c mice; details: mouse, in vivo
[2] = test system: intracellular B. pseudomallei 1026b; details: cited from earlier work
human Topo I = human Topo I (Homo sapiens, UniProt P11387); assay: biochemical
human Topo I, sequence (P11387 whole entry): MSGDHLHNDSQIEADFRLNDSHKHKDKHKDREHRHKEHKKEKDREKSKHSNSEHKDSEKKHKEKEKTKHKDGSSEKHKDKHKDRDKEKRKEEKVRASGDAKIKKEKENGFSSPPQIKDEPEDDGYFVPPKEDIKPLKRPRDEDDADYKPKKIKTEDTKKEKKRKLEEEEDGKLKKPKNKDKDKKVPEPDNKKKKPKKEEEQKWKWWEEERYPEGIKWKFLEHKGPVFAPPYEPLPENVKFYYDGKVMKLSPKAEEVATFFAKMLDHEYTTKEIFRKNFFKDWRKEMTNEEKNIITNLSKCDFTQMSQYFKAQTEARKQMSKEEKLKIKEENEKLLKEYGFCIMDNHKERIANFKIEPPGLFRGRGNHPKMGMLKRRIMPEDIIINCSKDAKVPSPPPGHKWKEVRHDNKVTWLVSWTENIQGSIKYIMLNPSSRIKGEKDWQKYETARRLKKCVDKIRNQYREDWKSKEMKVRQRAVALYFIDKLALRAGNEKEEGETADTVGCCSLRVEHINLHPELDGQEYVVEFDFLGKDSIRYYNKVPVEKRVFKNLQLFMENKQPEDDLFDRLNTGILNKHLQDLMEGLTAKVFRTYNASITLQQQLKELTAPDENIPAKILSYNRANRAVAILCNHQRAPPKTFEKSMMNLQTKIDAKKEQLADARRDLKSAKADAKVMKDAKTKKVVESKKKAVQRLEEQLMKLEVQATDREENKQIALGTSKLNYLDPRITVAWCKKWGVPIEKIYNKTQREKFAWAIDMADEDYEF

E. coli DNA gyrase = E. coli DNA gyrase (Escherichia coli, UniProt P0AES4+P0AES6); assay: biochemical
S. aureus DNA gyrase = S. aureus DNA gyrase (Staphylococcus aureus, UniProt P0A0K8+P20831); assay: biochemical
S. aureus Topo IV = S. aureus Topo IV (Staphylococcus aureus, UniProt P0C1S7+P0C1U9); assay: biochemical
[3] = test system: B. pseudomallei strain 1026b; type: cell-based, Burkholderia pseudomallei
[4] = not told
E. coli Topo IV = E. coli Topo IV (Escherichia coli, UniProt P0AFI2+P20083); assay: biochemical
E. coli Topo IV, sequence (P0AFI2 whole entry): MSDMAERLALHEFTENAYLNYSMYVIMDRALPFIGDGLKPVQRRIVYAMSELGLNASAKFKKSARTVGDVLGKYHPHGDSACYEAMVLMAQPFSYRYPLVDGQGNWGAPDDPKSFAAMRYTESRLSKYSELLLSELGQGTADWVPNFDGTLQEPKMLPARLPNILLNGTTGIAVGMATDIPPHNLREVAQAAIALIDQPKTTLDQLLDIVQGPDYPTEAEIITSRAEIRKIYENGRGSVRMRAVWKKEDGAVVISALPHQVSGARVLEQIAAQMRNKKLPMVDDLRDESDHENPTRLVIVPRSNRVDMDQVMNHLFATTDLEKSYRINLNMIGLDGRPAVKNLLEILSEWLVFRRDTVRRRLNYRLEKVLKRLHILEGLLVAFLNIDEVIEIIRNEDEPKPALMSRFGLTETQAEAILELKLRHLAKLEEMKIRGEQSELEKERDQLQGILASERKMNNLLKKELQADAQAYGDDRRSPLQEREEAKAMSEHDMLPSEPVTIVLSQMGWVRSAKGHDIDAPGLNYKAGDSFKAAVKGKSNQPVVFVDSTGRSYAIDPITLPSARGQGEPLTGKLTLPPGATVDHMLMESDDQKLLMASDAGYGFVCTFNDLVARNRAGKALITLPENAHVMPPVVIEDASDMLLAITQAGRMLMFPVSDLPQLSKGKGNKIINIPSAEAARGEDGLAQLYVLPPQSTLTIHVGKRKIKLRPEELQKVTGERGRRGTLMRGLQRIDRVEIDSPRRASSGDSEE
E. coli Topo IV, sequence (P20083 whole entry): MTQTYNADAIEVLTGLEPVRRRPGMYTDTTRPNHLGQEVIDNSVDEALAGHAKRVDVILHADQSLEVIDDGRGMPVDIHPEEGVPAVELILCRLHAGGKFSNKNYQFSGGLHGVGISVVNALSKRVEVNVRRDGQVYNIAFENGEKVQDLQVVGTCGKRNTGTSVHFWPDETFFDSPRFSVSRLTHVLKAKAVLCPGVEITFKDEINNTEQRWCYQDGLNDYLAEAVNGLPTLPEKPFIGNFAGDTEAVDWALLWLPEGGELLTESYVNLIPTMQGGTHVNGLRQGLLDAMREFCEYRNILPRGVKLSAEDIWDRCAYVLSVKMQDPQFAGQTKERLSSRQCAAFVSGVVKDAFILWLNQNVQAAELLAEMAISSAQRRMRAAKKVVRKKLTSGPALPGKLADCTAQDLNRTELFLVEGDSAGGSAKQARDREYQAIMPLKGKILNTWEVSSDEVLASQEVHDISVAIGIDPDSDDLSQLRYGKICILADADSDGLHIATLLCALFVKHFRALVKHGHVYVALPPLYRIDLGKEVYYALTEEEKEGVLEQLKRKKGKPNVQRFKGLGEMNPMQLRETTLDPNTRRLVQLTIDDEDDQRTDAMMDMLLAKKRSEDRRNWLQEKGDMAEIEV

[5] = test system: B. pseudomallei strain 1026b; set-up: species or system BALB/c mice; details: mouse, in vivo; remark: listed apart in the source
[6] = biological target: Quinolone-resistant E. coli gyrase (Escherichia coli, UniProt P0AES4+P0AES6); type: biochemical; details: read-out: IC50, E. coli quinolone-resistant gyrase
[7] = test system: intracellular B. pseudomallei 1026b; assay: microbe, parasite or virus in culture; type: cell-based, Burkholderia pseudomallei
[8] = test system: B. pseudomallei 1026b-based efflux-proficient and -compromised strains; assay: microbe, parasite or virus in culture; type: cell-based; details: Burkholderia pseudomallei, read-out: MIC under efflux by BpeEF-OprC

In the case of `CC[C@H]1OC(=O)[C@H](C)[C@@H](O[C@H]2C[C@@](C)(OC)[C@@H](O)[C@H](C)O2)[C@H](C)[C@@H](O[C@@H]2O[C@H](C)C[C@H](N(C)C)[C@H]2O)[C@](C)(O)C[C@@H](C)CN(C)[C@H](C)[C@@H](O)[C@]1(C)O` [Azithromycin], the MIC range (B. mallei) is reported as 0.12 to 1 µg/mL, the MIC50 (B. mallei) is reported as 0.5 µg/mL (≈ 0.668 µM) and the MIC90 (B. mallei) is reported as 0.5 µg/mL (≈ 0.668 µM).

In the case of `C[C@H]1c2cccc(O)c2C(=O)C2=C(O)[C@]3(O)C(=O)C(C(N)=O)=C(O)[C@@H](N(C)C)[C@@H]3[C@@H](O)[C@@H]21` [Doxycycline, doxycycline], the MIC range (B. pseudomallei) is reported as ≤0.06 to 32 µg/mL, the MIC50 (B. pseudomallei) is reported as 0.5 µg/mL (≈ 1.13 µM) and the MIC90 (B. pseudomallei) is reported as 4 µg/mL (≈ 9 µM). For the same compound, the MIC (E. coli ATCC 25922) was 1 µg/mL (≈ 2.25 µM) and the MIC (P. aeruginosa ATCC 27853) was > 16 µg/mL.

For `N#Cc1c(N2C[C@@H]3NCCO[C@H]3C2)c(F)cc2c(=O)c(C(=O)O)cn(C3CC3)c12` [Finafloxacin, finafloxacin, reference compound], the “MIC 50%” value (B. pseudomallei) was 4 µg/mL (≈ 10 µM), the “MIC 90%” value (B. pseudomallei) was 8 µg/mL (≈ 20.1 µM) and the “MIC 50%” value (B. mallei) was 0.25 µg/mL (≈ 0.628 µM). For the same compound, the “MIC 90%” value (B. mallei) was 2 µg/mL (≈ 5.02 µM), the MIC range (B. mallei) was 0.015 to 2 µg/mL and the “MIC 50%” value (Y. pestis) was 0.06 µg/mL (≈ 0.151 µM). The “MIC 90%” value (Y. pestis) was 0.12 µg/mL (≈ 0.301 µM), the MIC range (Y. pestis) was 0.015 to 0.25 µg/mL and the “MIC 50%” value (F. tularensis) was ≤0.004 µg/mL. The “MIC 90%” value (F. tularensis) was 0.008 µg/mL (≈ 0.0201 µM), the MIC range (F. tularensis) was ≤0.004 to 0.12 µg/mL and the “MIC 50%” value (B. anthracis) was 0.06 µg/mL (≈ 0.151 µM). For the same compound, the “MIC 90%” value (B. anthracis) was 0.12 µg/mL (≈ 0.301 µM) and the MIC range (B. anthracis) was 0.03 to 0.12 µg/mL.

Compound `CC(C)(O/N=C(\C(=O)N[C@@H]1C(=O)N2C(C(=O)[O-])=C(C[n+]3ccccc3)CS[C@H]12)c1csc(N)n1)C(=O)O` [Ceftazidime, ceftazidime] has an MIC50 (B. pseudomallei) of 1 µg/mL (≈ 1.83 µM), an MIC90 (B. pseudomallei) of 64 µg/mL (≈ 117 µM) and a survival [1] of 100%. The “effect on intracellular survival of B. pseudomallei in macrophages” value [2] was “no effect”, the MIC (E. coli ATCC 25922) was 0.25 µg/mL (≈ 0.457 µM) and the MIC (P. aeruginosa ATCC 27853) was 4 µg/mL (≈ 7.32 µM).

For `O=C(O)c1cn(C2CC2)c2cc(N3CCNCC3)c(F)cc2c1=O` [Ciprofloxacin, ciprofloxacin], the IC50 (human Topo I) was > 100 µM, the MIC (E. coli ATCC 25922) was ≤ 0.008 µg/mL and the MIC (P. aeruginosa ATCC 27853) was 0.25 µg/mL (≈ 0.754 µM).

In the case of `C[C@@H](O)[C@H]1C(=O)N2C(C(=O)O)=C(S[C@@H]3CN[C@H](C(=O)N(C)C)C3)[C@H](C)[C@H]12` [Meropenem, meropenem], the MIC range (B. pseudomallei) is reported as ≤0.06 to 4 µg/mL, the MIC50 (B. pseudomallei) is reported as 0.5 µg/mL (≈ 1.3 µM) and the MIC90 (B. pseudomallei) is reported as 1 µg/mL (≈ 2.61 µM).

For `Cc1c(-c2cc(F)c(N)cc2F)ccn2c(=O)c(C(=O)O)cc(C3CC3)c12` [GC-072], the IC50 (E. coli DNA gyrase) was 0.18 to 1.5 µM, the IC50 (S. aureus DNA gyrase) was 2 µM and the MIC range (B. pseudomallei) was ≤0.008 to 1 µg/mL. The “share of strains with MICs higher than 0.5 μg/ml” value (B. pseudomallei) was 7%, the MIC50 (B. pseudomallei) was 0.12 µg/mL (≈ 0.324 µM) and the MIC90 (B. pseudomallei) was 0.25 µg/mL (≈ 0.675 µM). The MIC range (B. mallei) was ≤0.004 to 0.5 µg/mL, the MIC50 (B. mallei) was 0.015 µg/mL (≈ 0.0405 µM) and the MIC90 (B. mallei) was 0.12 µg/mL (≈ 0.324 µM). The IC50 (S. aureus Topo IV) was 4 to 30 µM, the IC50 (human Topo I) was > 100 µM and the MIC range (Y. pestis) was 0.002 to 0.03 µg/mL. For the same compound, the MIC50 (Y. pestis; Yersinia pestis) was 0.008 µg/mL (≈ 0.0216 µM), the MIC90 (Y. pestis; Yersinia pestis) was 0.015 µg/mL (≈ 0.0405 µM) and the “MIC for B. pseudomallei 1026b (time-kill study)” value [3] was 0.125 µg/mL. The “share of the full killing effect observed within 5 h” value [3] was “more than 75%”, the permeability [4] was “good” and the MIC (E. coli ATCC 25922) was ≤ 0.004 µg/mL. The IC50 (E. coli Topo IV) was 4.22 to 8.45 µM, the “animals that survived to the end of the experiment” value [5] was “four” and the median survival time [5] was 4.5 days and 4.75 days and 5.63 days. The “overall survival rate of the treated groups” value [5] was 87%, the survival [5] was 90% and 80% and the MIC (P. aeruginosa ATCC 27853) was 1 µg/mL (≈ 2.7 µM). For the same compound, the IC50 [6] was 1.3 to 1.5 µM, the MIC range (F. tularensis) was ≤0.0005 to 0.015 µg/mL and the MIC50 (F. tularensis; Francisella tularensis) was ≤ 0.0005 µg/mL. The MIC90 (F. tularensis; Francisella tularensis) was ≤ 0.0005 µg/mL, the “viable intracellular bacteria 24 h after initiation of treatment” value [7] was “no viable bacteria detectable” and the MIC ([7]; Burkholderia pseudomallei, read-out: MIC for B. pseudomallei strain 1026b measured for the intracellular experiment) was 0.25 µg/mL (≈ 0.675 µM). For the same compound, the MIC [8] was 0.5 to 1 µg/mL (≈ 1.35 to 2.7 µM), the MIC range (B. anthracis) was ≤0.0005 to 0.004 µg/mL and the MIC50 (B. anthracis; Bacillus anthracis) was 0.001 µg/mL (≈ 0.0027 µM). The MIC90 (B. anthracis; Bacillus anthracis) was 0.002 µg/mL (≈ 0.0054 µM).
